Where two headings read alike, the source gives them in different places.
What was measured:
[1] = system: indomethacin-induced ulcer; assay: Indomethacin-induced ulcer; assay type: in vivo, male Wistar rats; conditions: Rattus norvegicus, 5 h, oral, 30 minutes before indomethacin 20 mg/kg s.c., read-out: Inhibitory ratio of indomethacin-induced ulcer
Procedure: After male Wistar rats weighing about 160 g was fasted for 24 hours, indomethacin was subcutaneously administered to the rats in a dose of 20 mg/kg in the form of a suspension in a mixture of 0.5% CMC and a small amount of Tween 80 (i.e. polyoxyethylene sorbitan monooleate). After 5 hours, the rats were killed and the stomach was isolated. Into the isolated stomach 10% formalin (8 ml) was poured and settled. The stomach was cut open at the greater curvature, and the length of each ulcer on the membrane was measured, based on which results the inhibitory ratio of the indomethacin-induced ulcer of the test compounds was calculated in the same manner as in Pharmacological Test 2. The test compound was orally administered to the rats in a dose of 100 mg/kg in the form of 0.5% CMC suspension 30 minutes before the administration of indomethacin.
(§1) In the table, the inhibitory ratio (%) was evaluated as follows: […]

[2] = system: gastric juice secretion; assay: Shay rat pylorus ligation method (gastric juice secretion-inhibiting activity); assay type: in vivo, male Wistar rats; conditions: 4 hours after ligation; for inhibition in vivo at 200 mg/kg / inhibition in vivo at 100 mg/kg: Rattus norvegicus, 4 h; for inhibition in vivo at 200 mg/kg: sc, subcutaneous route; for inhibition in vivo at 100 mg/kg / Inhibitory ratio, volume of gastric juice: duodenal route, 100 mg/kg
Procedure: The pharmacological activities of the compounds (1) were tested by a Shay rat pylorus ligation method (cf. H. Shay et al: Gastroenterol., Vol. 5, page 43, 1945) which is the most popular method for testing of gastric juice secretion-inhibiting activity. The test was carried out by using male Wistar rats, weighing about 170 g and fasting for 24 hours.
Test compounds were administered 30 minutes before the pylorus ligation in a dose of 100 mg/kg in subcutaneous route in case of test compounds 37, 38, 50, 51 and 52, in a dose of 200 mg/kg in subcutaneous route in case of test compounds 105 and 106 and in dose of 100 mg/kg in duodenal route in case of other test compounds, and the volume, total acidity and pepsin activity of the gastric juice were measured 4 hours after the ligation. As a control, a saline solution was administered instead of the test compound. The inhibitory ratio (%) of the test compounds were calculated when the inhibitory activities of the control were counted as zero (0).
as §1

[3] = system: stress ulcer; assay: Stress ulcer (restraint and water immersion); assay type: in vivo, male Wistar rats; conditions: Rattus norvegicus, po, 7 h, read-out: Inhibitory ratio of stress ulcer; for inhibition in vivo: concentration of 1×10^-3 mole; for inhibition in vivo at 300 mg/kg: 0.5% CMC suspension
Procedure: After male Wistar rats weighing about 170 g was fasted for 24 hours, the rats were restrained in a stress cage and dipped in water bath at 23° C. till chest of the animals. After 7 hours, the rats were killed and the stomach was isolated. Into the isolated stomach 10% formalin (8 ml) was poured and settled. The stomach was cut open at the greater curvature, and the length of each ulcer on the membrane was measured. Sum of the length of all ulcers was shown as ulcer index (UI). The test compound was orally administered to the rats before restraint in a stress cage in a dose of 300 mg/kg in the form of 0.5% CMC suspension in case of test compounds 3, 4, 6, 15 and 27 and in a concentration of 1×10^-3 mole in case of other test compounds. As a control, only the solvent (CMC solution) was administered likewise. The inhibitory ratio (%) of stress ulcer of the test compounds was calculated by the following equation: [formula]
as §1

[4] = Acute toxicity (LD50, p.o.); conditions: rat, in vivo; oral, male Wistar rats
Procedure: The test compounds were orally administered to male Wistar rats, and the half lethal dose (LD50) was measured.

[5] = read-out: Inhibitory ratio, pepsin activity
[6] = read-out: Inhibitory ratio, total acidity
[7] = read-out: Inhibitory ratio, volume of gastric juice
[8] = star-marked compounds, read-out: Inhibitory ratio, total acidity
[9] = star-marked compounds, read-out: Inhibitory ratio, volume of gastric juice
[10] = star-marked compounds, read-out: Inhibitory ratio, pepsin activity

SMILES | inhibition in vivo at 100 mg/kg [1] | inhibition in vivo [3] | LD50 [4] | inhibition in vivo at 100 mg/kg [2, 7] | further results
Cn1nnnc1SCCCC(=O)c1ccccc1 [Test compound 53, 1-Methyl-5-(3-benzoylpropyl)thio-1,2,3,4-tetrazole] | > 60% |  |  |  | 
CCN(CC)C(=O)CCCn1nnnc1C [Test compound 105, N,N-Diethyl-4-(5-methyl-1,2,3,4-tetrazol-1-yl)butyramide] | 30 to 60% | > 60% | > 500 mg/kg |  | inhibition in vivo at 200 mg/kg [2, 5]: 10 to 50%; inhibition in vivo at 200 mg/kg [2, 6]: 10 to 50%; inhibition in vivo at 200 mg/kg [2, 7]: 10 to 50%
CCN(CC)CCCSc1nnnn1C [Test compound 84, 1-Methyl-5-[3-(N,N-diethylamino)propyl]thio-1,2,3,4-tetrazole] | > 60% | > 60% |  | 10 to 50% | inhibition in vivo at 100 mg/kg [2, 5]: 10 to 50%; inhibition in vivo at 100 mg/kg [2, 6]: 10 to 50%
CCSCCCSc1nnnn1C [Test compound 7, 1-Methyl-5-(3-ethylthiopropyl)thio-1,2,3,4-tetrazole] |  | > 60% | > 500 mg/kg | > 50% | 
Br.CNC(=N)SCCCCSc1nnnn1C [Test compound 27, 1-Methyl-2-[4-(1-methyl-1,2,3,4-tetrazol-5-yl)thiobutyl]isothiourea hydrobromide] |  |  |  |  | Inhibitory ratio, volume of gastric juice [2]: + +; inhibition in vivo at 300 mg/kg [3]: > 60%
CC(CSc1ccccn1)CSc1nnnn1C (stereo not drawn) [Test compound 34, 1-Methyl-5-[2-methyl-3-(2-pyridyl)thiopropyl]thio-1,2,3,4-tetrazole] |  | > 60% |  | > 50% | 
Cn1nnnc1SCCCNC(=O)c1ccccc1 [Test compound 88, 1-Methyl-5-(3-benzoylaminopropyl)thio-1,2,3,4-tetrazole] |  | > 60% |  | > 50% | 
Cn1nnnc1SCCCC(=O)c1ccccn1 [Test compound 74, 1-Methyl-5-[3-(2-pyridyl)carbonylpropyl]thio-1,2,3,4-tetrazole] |  | > 60% |  | > 50% | 
Cn1nnnc1SCCCC(=O)c1ccco1 [Test compound 55, 1-Methyl-5-[3-(2-furoyl)propyl]thio-1,2,3,4-tetrazole] |  | 30 to 60% |  | > 50% | inhibition in vivo at 100 mg/kg [2, 5]: 10 to 50%; inhibition in vivo at 100 mg/kg [2, 6]: > 50%
Cn1nnnc1SCCCSC1CCCCC1 [Test compound 3, 1-Methyl-5-(3-cyclohexylthiopropyl)thio-1,2,3,4-tetrazole] | 30 to 60% |  |  |  | inhibition in vivo at 100 mg/kg [2, 8]: > 60%; inhibition in vivo at 100 mg/kg [2, 9]: > 60%; inhibition in vivo at 300 mg/kg [3]: > 60%
Cn1nnnc1SCCCC(=O)Cc1ccccc1 [Test compound 57, 1-Methyl-5-(3-benzylcarbonylpropyl)thio-1,2,3,4-tetrazole] |  | > 60% |  | > 50% | inhibition in vivo at 100 mg/kg [2, 5]: 10 to 50%; inhibition in vivo at 100 mg/kg [2, 6]: 10 to 50%
Cn1nnnc1SCCCCCCSc1nnnn1C [Test compound 36, 1-Methyl-5-[6-(1-methyl-1,2,3,4-tetrazol-5-yl)thiohexyl]thio-1,2,3,4-tetrazole] |  | > 60% |  |  | Inhibitory ratio, volume of gastric juice [2]: + +
CC(CSc1nnnn1C)CSc1nnnn1C [Test compound 9, 1-Methyl-5-[2-methyl-3-(1-methyl-1,2,3,4-tetrazol-5-yl)thiopropyl]thio-1,2,3,4-tetrazole] | > 60% |  |  |  | 
Cc1nnc(SCCCSc2nnnn2C)o1 [compound 4] | > 60% |  | > 500 mg/kg |  | inhibition in vivo at 100 mg/kg [2, 10]: 30 to 60%; inhibition in vivo at 100 mg/kg [2, 8]: > 60%; inhibition in vivo at 100 mg/kg [2, 9]: > 60%; inhibition in vivo at 300 mg/kg [3]: > 60%
Cn1nnnc1SCCC[S+]([O-])c1ccccn1 (stereo not drawn) [Test compound 44, 3-(1-Methyl-1,2,3,4-tetrazol-5-yl)thiopropyl 2-pyridyl sulfoxide] |  | > 60% | > 500 mg/kg | > 50% | 
Cn1nnnc1SCCCCCCSc1ccccn1 [Test compound 33, 1-Methyl-5-[6-(2-pyridyl)thiohexyl]thio-1,2,3,4-tetrazole] |  | > 60% |  | 10 to 50% | 
CCN(C(=O)CCCn1nnnc1C)C1CCCCC1 [Test compound 106, N-Ethyl-N-cyclohexyl-4-(5-methyl-1,2,3,4-tetrazol-1-yl)butyramide] | 30 to 60% |  | > 500 mg/kg |  | inhibition in vivo at 200 mg/kg [2, 5]: 10 to 50%; inhibition in vivo at 200 mg/kg [2, 6]: 10 to 50%; inhibition in vivo at 200 mg/kg [2, 7]: 10 to 50%
Cn1nnnc1SCCCSCc1csc(N)n1 [Test compound 17, 1-Methyl-5-[3-(2-amino-4-thiazolyl)methylthiopropyl]thio-1,2,3,4-tetrazole] |  | > 60% |  | 10 to 50% | 
CC(=O)CSc1nnnn1C [Test compound 67] | > 60% |  | > 500 mg/kg |  | 
Cn1nnnc1SCCCCCSc1nnnn1C [Test compound 5, 1-Methyl-5-[5-(1-methyl-1,2,3,4-tetrazol-5-yl)thiopentyl]thio-1,2,3,4-tetrazole] | > 60% | > 60% |  |  | inhibition in vivo at 100 mg/kg [2, 10]: 30 to 60%; inhibition in vivo at 100 mg/kg [2, 8]: > 60%; inhibition in vivo at 100 mg/kg [2, 9]: > 60%

From US4372953A, “Tetrazole derivatives, and anti-ulcer composition containing the same” (Otsuka Pharmaceutical Company, Limited, priority 1980, dated 1983)
